{
  "source": "patent US9234046B2",
  "about": "“Treatment of renal disease” (OPSONA Therapeutics Ltd, priority 2007, dated 2016)",
  "key": {"C57BL/6 mice [1]": {"test_system": "C57BL/6 mice", "assay": "Nephrotoxic serum + Pam3CysSK4 glomerular inflammation model, 2 hours: glomerular neutrophils and circulating leukocytes", "assay_type": "in vivo", "settings": "individual mice; 2 hours after disease induction; 50 glomerular cross sections counted", "protocol": "(§1) Methods for generating nephrotoxic antibody, blood counts, processing histology, assessment of histology are disclosed in Brown H J, Lock, H R, Sacks S H, Robson M G TLR2 stimulation of intrinsic kidney cells in the induction of immune mediated glomerulonephritis, J Immunol 2006, 177(3):1925-1931, the contents of which are incorporated herein by reference. These methods were followed in the performance of the present example.\n(§2) The glomerular histology was assessed at 2 hours and 24 hours following disease induction with NTS. Kidneys were fixed in Bouin's solution and stained with periodic acid-Schiff reagent. At 2 hours, the number of neutrophils (identified by their characteristic nuclear morphology) per 50 glomerular cross sections was counted. At 24 hours, the amount of glomerular thrombosis was assessed by identification of the amount of periodic acid-Schiff-positive material. In total, 50 glomeruli were assessed for each animal for signs of glomerular thrombosis, and a score was assigned as follows: grade 0, no periodic acid-Schiff-positive material; grade 1, <25%; grade 2, 25-50%; grade 3, 50-75%; grade 4, 75-100%. All sections scored for neutrophils and glomerular thrombosis were done so blindly.\n200 ul of nephrotoxic serum containing 10 ug of the lipopetide Pam3CysSK4 (EMC microcollections) was given intravenously via the tail vein. […]"}, "C57BL/6 mice [2]": {"test_system": "C57BL/6 mice", "assay": "Nephrotoxic serum + Pam3CysSK4 glomerular inflammation model, 24 hours: albuminuria and glomerular thrombosis", "assay_type": "in vivo", "protocol": "as §1\nKidney samples were fixed for 4 hours in Bouin's solution, transferred into formalin, then processed and embedded in paraffin. Sections were cut at 0.5 μm thickness and stained with periodic acid-Schiff (PAS) reagent. All samples then were assessed blindly for glomerular thrombosis by identification of the amount of PAS-positive material. In total, 50 glomeruli were assessed for each mouse for signs of glomerular thrombosis, and a score was assigned to each as follows: Grade 0, no PAS-positive material; grade 1, […]; grade 2, 25 to 50%, grade 3, 50 to 75%, and grade 4, 75 to 100%. The average glomerular thrombosis score for each mouse then was calculated. Sections also were assessed blindly for glomerular crescents. A total of 50 glomeruli were assessed, and the number of crescents (two or more layers of cells in Bowman's space) was expressed as a percentage.\nas §2\nMice were housed in metabolic cages for 24 hours for urine collections. The urine albumin concentration was measured by radial immunodiffusion. The sensitivity of the radial immunodiffusion assay for albumin was 0.05 mg/ml. Urine samples were diluted to 1:40 so that values fell on the standard curve.\n200 ul of nephrotoxic serum containing 10 ug of the lipopetide Pam3CysSK4 (EMC microcollections) was given intravenously via the tail vein. 2 hours prior to this, mice were treated as follows. […]\nThe above groups were place in metabolic cages immediately after induction of disease and exsanguinated under anaesthesia 24 hours later. […] Albuminuria and thrombosis data was analysed after a logarithmic transformation."}, "[3]": {"settings": "24 hours, versus other treatment groups"}},
  "note": "“And” between values parts separate entries of the source, which are not always exact repeats. Identical values can stand only once.",
  "data": [
    {"smiles": "C[C@]12C=CC(=O)C=C1CC[C@@H]1[C@@H]2C(=O)C[C@@]2(C)[C@H]1CC[C@]2(O)C(=O)CO", "note": "[Prednisone]", "values": [
      {"measurement": "pmn/glom (neutrophils per glomerular cross section)", "setting": "C57BL/6 mice [1]", "value": "0.54 pmn/glom and 0.28 pmn/glom and 0.42 pmn/glom and 0.24 pmn/glom and 0.34 pmn/glom"},
      {"measurement": "albuminuria, in words", "setting": "C57BL/6 mice [2]; [3]", "value": "did not reach significance"},
      {"measurement": "glomerular thrombosis, in words", "setting": "C57BL/6 mice [2]; [3]", "value": "significantly less thrombosis than PBS but not control antibody treated mice"},
      {"measurement": "alb, mg/ml (albuminuria)", "setting": "C57BL/6 mice [2]; individual mice, 24 hour urine collection, radial immunodiffusion", "value": "2.54 mg/mL and 4.54 mg/mL and 4.71 mg/mL and 4.98 mg/mL"},
      {"measurement": "Thromb/50 gloms (glomeruli showing any thrombosis out of a total of 50)", "setting": "C57BL/6 mice [2]; individual mice, 24 hours after disease induction, treated 2 hours before", "value": "7 /50 gloms (3×) and 3 /50 gloms"}
    ]}
  ]
}
